Measurements: patent US20260354380A1, “PYRAZOLO PESTICIDAL COMPOUNDS” (BASF SE, priority 2022, published 2026)

Key:
Format in all cases: in vivo
Spodoptera eridania = assay: Action on Southern Armyworm (Spodoptera eridania), 2nd Instar Larvae; details: 300 ppm; 2nd instar larvae; 4 days after treatment
Procedure: Example B7: Action on Southern Armyworm (Spodoptera eridania), 2nd Instar Larvae
The active compounds were formulated by a Tecan liquid handler in 100% cyclohexanone as a 10,000 ppm solution supplied in tubes. The 10,000 ppm solution was serially diluted in 100% cyclohexanone to make interim solutions. These served as stock solutions for which final dilutions were made by the Tecan in 50% acetone: 50% water (v/v) into 10 or 20 ml glass vials. A nonionic surfactant (Kinetic®) was included in the solution at a volume of 0.01% (v/v). The vials were then inserted into an automated electrostatic sprayer equipped with an atomizing nozzle for application to plants/insects.
Lima bean plants (variety Sieva) were grown 2 plants to a pot and selected for treatment at the 1st true leaf stage. Test solutions were sprayed onto the foliage by an automated electrostatic plant sprayer equipped with an atomizing spray nozzle. The plants were dried in the sprayer fume hood and then removed from the sprayer. Each pot was placed into perforated plastic bags with a zip closure. About 10 to 11 armyworm larvae were placed into the bag and the bags zipped closed. Test plants were maintained in a growth room at about 25 °C and about 20-40% relative humidity for 4 days, avoiding direct exposure to fluorescent light (24 hour photoperiod) to prevent trapping of heat inside the bags. Mortality and reduced feeding were assessed 4 days after treatment, compared to untreated control plants.
(§1) Compounds disclosed in the document WO2021013561 were prepared according to procedures described therein and their pesticidal activities were determined by procedure analogues to the procedures as described above in examples B6 and B7.

Heliothis virescens = assay: Action on Tobacco Budworm (Heliothis virescens); details: 800 ppm; egg and larval mortality; 5 days
Procedure: Example B5: Action on Tobacco Budworm (Heliothis virescens)
For evaluating control of tobacco budworm (Heliothis virescens) the test unit consisted of 96-well-microtiter plates containing an insect diet and 15-25 H. virescens eggs.
The compounds were formulated using a solution containing 75% v/v water and 25% v/v DMSO. Different concentrations of formulated compounds were sprayed onto the insect diet at 10 μl, using a custom-built micro atomizer, at two replications.
After application, microtiter plates were incubated at about 28±1 °C and about 80±5% relative humidity for 5 days. Egg and larval mortality were then visually assessed.

Plutella xylostella = assay: Action on Diamond Back Moth (Plutella xylostella), cabbage leaf dip, 3rd instar larvae; details: 300 ppm; 3rd instar larvae; 72 hours after treatment
Procedure: Example B6: Action on Diamond Back Moth (Plutella xylostella)
The active compound is dissolved at the desired concentration in a mixture of 1:1 (v/v) distilled water:acetone. Surfactant (Kinetic® HV) is added at a rate of 0.01% (v/v). The test solution is prepared at the day of use.
Leaves of cabbage were dipped in test solution and air-dried. Treated leaves were placed in petri dishes lined with moist filter paper and inoculated with ten 3rd instar larvae. Mortality was recorded 72 hours after treatment. Feeding damages were also recorded using a scale of 0-100%.
as §1

Anthonomus grandis = assay: Action on Boll Weevil (Anthonomus grandis); details: 800 ppm; egg and larval mortality; 5 days
Procedure: Example B3: Action on Boll Weevil (Anthonomus grandis)
For evaluating control of boll weevil (Anthonomus grandis) the test unit consisted of 96-well-microtiter plates containing an insect diet and 5-10 A. grandis eggs.
The compounds were formulated using a solution containing 75% (v/v) water and 25% (v/v) DMSO. Different concentrations of formulated compounds were sprayed onto the insect diet at 5 μl, using a custom-built micro atomizer, at two replications.
After application, microtiter plates were incubated at about 25±1 °C and about 75±5% relative humidity for 5 days. Egg and larval mortality were then visually assessed.

Aedes aegypti = assay: whole plant or invertebrate; details: 800 ppm; larvae; 2 days
Procedure: Example B1: Action on Yellow Fever Mosquito (Aedes aegypti)
For evaluating control of yellow fever mosquito (Aedes aegypti) the test unit consisted of 96-well-microtiter plates containing 200 μl of tap water per well and 5-15 freshly hatched A. aegypti larvae.
The active compounds or mixtures were formulated using a solution containing 75% (v/V) water and 25% (v/v) DMSO. Different concentrations of formulated compounds or mixtures were sprayed onto the insect diet at 2.5 μl, using a custom-built micro atomizer, at two replications. For experimental mixtures in these tests identical volumes of both mixing partners at the desired concentrations respectively, were mixed together.
After application, microtiter plates were incubated at 28±1 °C, 80±5% RH for 2 days. Larval mortality was then visually assessed.

Row | SMILES | mortality in comparison with untreated controls (Spodoptera eridania) | mortality in comparison with untreated controls (Heliothis virescens) | mortality in comparison with untreated controls (Plutella xylostella) | mortality in comparison with untreated controls (Anthonomus grandis) | mortality in comparison with untreated controls (Aedes aegypti)
1 | Cc1ccc(C(C)C)c(N2C(=O)CSC2=NC(=O)Nc2ccc(-n3cc(NC(=O)c4ccc(C5CC5(Cl)Cl)cc4)c(C)n3)cc2)c1 (racemic) [Example C-89] | at least 75% | at least 75% | at least 75% |  | 
2 | Cc1ccc(C(C)C)c(N2C(=O)CS/C2=N\C(=O)Nc2ccc(-n3cc(NC(=O)c4ccc(C#N)cc4)c(C)n3)cc2)c1 [Example C-33] | at least 75% | at least 75% | at least 75% | at least 75% | 
3 | COC(C)(C)c1ccc(C(=O)Nc2cn(-c3ccc(NC(=O)N=C4SCC(=O)N4c4cc(C)ccc4C(C)C)cc3)nc2C)cc1 [Example C-61] |  | at least 75% | at least 75% |  | 
4 | CC(=O)c1ccc(C(=O)Nc2cn(-c3ccc(NC(=O)N=C4SCC(=O)N4c4cc(C)ccc4C(C)C)cc3)nc2C)cc1 [Example C-69] | at least 75% |  |  |  | 
5 | Cc1ccc(C(C)C)c(N2C(=O)CSC2=NC(=O)Nc2ccc(-n3cc(NC(=O)c4ccc(C(C)C)cc4)c(C)n3)cc2)c1 [Example C-70] |  | at least 75% | at least 75% |  | at least 50%
6 | Cc1ccc(C(C)C)c(N2C(=O)CSC2=NC(=O)Nc2ccc(-n3cc(NC(=O)c4ccc(C#CC5CC5)cc4)c(C)n3)cc2)c1 [Example C-72] |  | at least 75% |  |  | 
7 | Cc1ccc(C(C)C)c(N2C(=O)CSC2=NC(=O)Nc2ccc(-n3cc(NC(=O)c4ccc(N(C)C)cc4)c(C)n3)cc2)c1 [Example C-75] | at least 75% | at least 75% | at least 75% | at least 75% | 
8 | Cc1ccc(C(C)C)c(N2C(=O)CSC2=NC(=O)Nc2ccc(-n3cc(NC(=O)c4ccc(OCC#N)cc4)c(C)n3)cc2)c1 [Example C-76] | at least 75% | at least 75% | at least 75% | at least 75% | 
9 | Cc1ccc(C(C)C)c(N2C(=O)CSC2=NC(=O)Nc2ccc(-n3cc(NC(=O)c4ccc(C5(F)COC5)cc4)c(C)n3)cc2)c1 [Example C-77] |  | at least 75% | at least 75% | at least 75% | 
10 | Cc1ccc(C(C)C)c(N2C(=O)CSC2=NC(=O)Nc2ccc(-n3cc(NC(=O)c4ccc(CC#N)cc4)c(C)n3)cc2)c1 [Example C-78] | at least 75% | at least 75% | at least 75% | at least 75% | 
11 | CCc1ccc(C(=O)Nc2cn(-c3ccc(NC(=O)N=C4SCC(=O)N4c4cc(C)ccc4C(C)C)cc3)nc2C)cc1 [Example C-80] |  | at least 75% | at least 75% | at least 75% | at least 50%
12 | CSc1ccc(C(=O)Nc2cn(-c3ccc(NC(=O)N=C4SCC(=O)N4c4cc(C)ccc4C(C)C)cc3)nc2C)cc1 [Example C-83] |  | at least 75% | at least 75% | at least 75% | at least 50%
13 | Cc1ccc(C(C)C)c(N2C(=O)CSC2=NC(=O)Nc2ccc(-n3cc(NC(=O)c4cnc(C#N)nc4)c(C)n3)cc2)c1 [Example C-84] |  |  | at least 75% |  | 
14 | CCOc1ccc(C(=O)Nc2cn(-c3ccc(NC(=O)N=C4SCC(=O)N4c4cc(C)ccc4C(C)C)cc3)nc2C)cc1 [Example C-85] | at least 75% | at least 75% | at least 75% |  | 
15 | Cc1ccc(C(C)C)c(N2C(=O)CSC2=NC(=O)Nc2ccc(-n3cc(NC(=O)c4ccc(C5(C#N)CC5)cc4)c(C)n3)cc2)c1 [Example C-86] | at least 75% | at least 75% | at least 75% |  | 
16 | C=Cc1ccc(C(=O)Nc2cn(-c3ccc(NC(=O)N=C4SCC(=O)N4c4cc(C)ccc4C(C)C)cc3)nc2C)cc1 [Example C-87] |  | at least 75% | at least 75% | at least 75% | at least 50%
17 | Cc1ccc(C(C)C)c(N2C(=O)CSC2=NC(=O)Nc2ccc(-n3cc(NC(=O)c4ccc(C#N)nc4)c(C)n3)cc2)c1 [Example C-90] |  |  | at least 75% | at least 75% | 
18 | Cc1ccc(C(C)C)c(N2C(=O)CSC2=NC(=O)Nc2ccc(-n3cc(NC(=O)c4ccc(S(C)(=O)=O)cc4F)c(C)n3)cc2)c1 [Example C-91] | at least 75% | at least 75% | at least 75% | at least 75% | 
19 | Cc1ccc(C(C)C)c(N2C(=O)CSC2=NC(=O)Nc2ccc(-n3cc(NC(=O)c4ccc(C5(C)COC5)cc4)c(C)n3)cc2)c1 [Example C-92] |  | at least 75% | at least 75% | at least 75% | 
20 | Cc1ccc(C(C)C)c(N2C(=O)CSC2=NC(=O)Nc2ccc(-n3nc(C)c(NC(=O)c4ccc(F)cc4)c3C)cc2Cl)c1 [Example C-124] | at least 75% |  |  |  | 
21 | Cc1ccc(C(C)C)c(N2C(=O)CSC2=NC(=O)Nc2ccc(-n3cc(NC(=O)c4ccc(OC(F)(F)F)cc4)c(C)n3)cc2Cl)c1 [Example C-131] | at least 75% |  |  |  | 
22 | Cc1ccc(C(C)C)c(N2C(=O)CSC2=NC(=O)Nc2ccc(-n3cc(NC(=O)c4ccc(Cl)cc4Cl)c(C)n3)cc2Cl)c1 [Example C-132] | at least 75% |  |  |  | 
